What was measured:
Maize coleoptiles = test: Effect of FB1 and AP1 on maize coleoptiles (injury evaluation); set-up: key to Injury or lack thereof of maize coleoptiles: + = brown necrotic discoloration of coleoptile; − = no symptoms (same as water control); conditions: for Injury or lack thereof of maize coleoptiles: 2 days dark at 28° C. then 3 days light
Method: Maize coleoptiles from 4 day dark-grown germinated maize seeds were excised above the growing point and placed in 96-well microliter plates in the presence of 60 microliters of sterile distilled water containing FB1 or AP1 at approximately equimolar concentrations of 1.5, 0.5, 0.15, 0.05, 0.015, 0.005, 0.0015, or 0.0005 millimolar, along with water controls. After 2 days in the dark at 28° C. the coleoptiles were placed in the light and incubated another 3 days.

Lemna tissues = conditions: Vesonder et al. (1992); cited from earlier work
tomato = conditions: Lamprecht et al. (1994); cited from earlier work
BMS cells = test: Effect of FB1 and AP1 on growth of maize tissue cultured cells (Black Mexican Sweet, BMS); type: cell-based; conditions: for concentration at which growth of BMS cells was inhibited: 1 week, liquid culture, compared to water control wells
Method: FB1 or AP1 at various concentrations was added to suspensions of BMS cells growing in liquid culture medium in 96-well polystyrene plates. After 1 week the cell density in wells was observed under low power magnification and growth of toxin-treated wells was compared to control wells that received water. […] This represents an approximate 100-fold difference in toxicity to maize tissue-cultured cells. […] AP1 was not tested in that study, however.

maize callus = conditions: solid medium; Van Asch et al. (1992); cited from earlier work

SMILES	Injury or lack thereof of maize coleoptiles (Maize coleoptiles; 1.5 mM)	Injury or lack thereof of maize coleoptiles (Maize coleoptiles; .0005 mM)	Injury or lack thereof of maize coleoptiles (Maize coleoptiles; .0015 mM)	Injury or lack thereof of maize coleoptiles (Maize coleoptiles; .005 mM)	Injury or lack thereof of maize coleoptiles (Maize coleoptiles; .015 mM)	Injury or lack thereof of maize coleoptiles (Maize coleoptiles; .05 mM)	Injury or lack thereof of maize coleoptiles (Maize coleoptiles; .15 mM)	Injury or lack thereof of maize coleoptiles (Maize coleoptiles; .5 mM)	difference in toxicity between FB1 and AP1 to maize coleoptiles (Maize coleoptiles; AP1 less toxic than FB1) [fold]	AP1 less toxic (than FB1) in Lemna tissues (Lemna tissues)	reduction in toxicity to tomato by AP1 versus FB1 (tomato) [fold]	concentration at which growth of BMS cells was inhibited (BMS cells) [nM]	difference in toxicity to maize tissue-cultured cells (FB1 vs AP1) (BMS cells; AP1 less toxic than FB1) [fold]	concentration giving significant inhibition of maize callus (maize callus) [nM]
CCCC[C@@H](C)[C@@H](O)[C@@H](O)C[C@@H](C)C[C@H](O)CCCC[C@@H](O)C[C@H](O)[C@H](C)N [AP1]	+	−	−	−	−	−	−	−	≥ 30	approximately 40 fold	~100	40000	~100	
CCCC[C@@H](C)[C@@H](OC(=O)C[C@@H](CC(=O)O)C(=O)O)[C@H](C[C@@H](C)C[C@H](O)CCCC[C@@H](O)C[C@H](O)[C@H](C)N)OC(=O)C[C@@H](CC(=O)O)C(=O)O [FB1, fumonisin B1]	+	−	−	−		+	+	+				400		1400
